According to patent US9877479B2, “Pamoic acid blocks ethelyne signaling” (THE REGENTS OF THE UNIVERSITY OF CALIFORNIA, priority 2010, dated 2018):
“Also recorded” adds a separate entry of the source.

Key:
Assay type in all cases: in vivo
[1] = system: auxin inducible reporter gene called DR5; assay: Auxin inducible reporter gene DR5 expression; details: auxin treatment; PA especially at high levels
Protocol: The effects of auxin on an auxin inducible reporter gene called DR5 were measured. Normally, auxin treatment results in increased expression of DR5, which is evidenced by blue color in the roots and leaf tip.

[2] = system: Wild type Arabidopsis seedlings; assay: Ethylene dependent seedling triple response, dark, saturating ethylene
Protocol: (§1) FIG. 5. Wild type Arabidopsis seedlings were grown for four days in the dark in the presence of saturating ethylene (100 ppm) and either 0 or 10 μM pamoic acid after which it was determined whether aspects of the ethylene dependent seedling triple response were affected.
FIG. 6. Wild type Arabidopsis seedlings were grown for four days in the dark in the presence of either the ethylene perception inhibitor AgNO3 or saturating ethylene (100 ppm) along with either 0 or 10 μM pamoic acid. Following this, hypocotyl length and number of seedlings presenting an ethylene dependent apical hook in the presence of saturating ethylene (shown as percentages) were determined (n=40).
FIG. 7. Wild type Arabidopsis seedlings were grown for four days in the dark in the presence of either air or saturating ethylene (100 ppm) along with either 0 or 10 μM pamoic acid. Following this, root length was measured for each treatment (n=40).
(§2) This is a dark phenotype that results in severe stunting of shoot and root growth along with a pronounced apical hook in the presence of saturating ethylene. This phenotype is ultimately conditioned by auxin acting through ethylene. […] FIG. 5 represents a mutant that has constitutive ethylene signaling (ctr1) and FIGS. 6 and 7 represents wild type treated with ethylene+/−PA.

[3] = system: Mutant Arabidopsis seedlings (ctrl-3); assay: Constitutive ethylene response phenotype of mutant seedlings
Protocol: FIG. 3. Mutant Arabidopsis seedlings (ctrl-3) that have a constitutive ethylene response phenotype, including severe root shortening dependent on unregulated ethylene signaling, were grown in the light in nutrient medium supplemented with either 0 or 10 μM pamoic acid for 7 days. Following this, roots of each were measured (n=40).
as §1, §2

[4] = system: Flowers of Dianthus caryophyllus (carnation); assay: Ethylene dependent flower senescence of cut carnations; details: cut flowers in water supplemented with 50 μM pamoic acid, observed to Day 8
Protocol: FIG. 8. Flowers of Dianthus caryophyllus (carnation) were harvested and immediately placed cut side down into either water or water supplemented with 50 μM pamoic acid.

seedling roots [5] = assay: Growth of seedlings on increasing amounts of PA (root growth)
Protocol: (§3) This is not a toxicity issue in due to the data in panels 10B and C. In panel 10B, seedlings were grown in the absence or presence of a highly inhibitory amount of NAA. A subset of these seedlings also had PA added to them. […] Gravitropism is a well know auxin dependent phenomenon.

seedling roots [6] = assay: Root growth in presence of a highly inhibitory amount of NAA, with or without PA; details: PA added
Protocol: as §3

wild type roots = assay: Gravitropic response of seedlings
Protocol: as §3

ethylene inducible genes = assay: Ethylene inducible gene expression in presence of PA; details: ethylene treatment in the presence of PA (panel 12A); listed as PA
Protocol: (§4) Since PA reduces ethylene response, it was natural to assume that it would also reduce ethylene mediated gene expression. […] PA was then tested on gene expression that was dependent on auxin and ethylene.

[7] = system: genes that require both ethylene and auxin for induction; assay: Expression of genes dependent on auxin and ethylene in presence of PA; details: in the presence of PA (panel 12B)
Protocol: as §4

[8] = wild type, four days in the dark, saturating ethylene (100 ppm), 10 μM pamoic acid

SMILES | DR5 expression [1] | ethylene response phenomena including apical hook formation and root growth inhibition ([2]; wild type treated with ethylene +/- PA (FIGS. 6 and 7)) | ethylene dependent apical hook [2, 8] | root length compared to seedlings not treated with pamoic acid [2, 8] | constitutive ethylene response of ctrl-3 mutants ([3]; ctrl-3 mutants) | ethylene response phenomena including apical hook formation and root growth inhibition ([3]; mutant with constitutive ethylene signaling (ctr1), FIG. 5) | petal inrolling or petal senescence [4] | root growth at high concentrations of PA (seedling roots [5]; high concentrations of PA) | root length with increasing amounts of PA (seedling roots [5]; increasing amounts of PA) | length of PA+NAA treated roots relative to NAA treated roots (seedling roots [6]) | gravitropism of roots and shoots (wild type roots; in the presence of PA) | gravitropic response of seedling roots (wild type roots; wild type roots treated with PA) | expression of ethylene inducible genes following ethylene treatment (ethylene inducible genes) | expression of two genes that require both ethylene and auxin for induction [7]
CC(C)(Oc1ccc(Cl)cc1)C(=O)O [CPIB, reference compound] | eliminates DR5 expression |  |  |  |  |  |  |  |  |  |  |  |  | 
O=C(O)c1cc2ccccc2c(Cc2c(O)c(C(=O)O)cc3ccccc23)c1O [pamoic acid, Pamoic acid] | reduced or eliminated DR5 expression | strictly blocks | elimination of the ethylene dependent apical hook | significant increase in root length | reversing the constitutive ethylene response | strictly blocks | no evidence of petal inrolling or petal senescence even after Day 8 | almost completely block root growth | progressively shorter roots | nearly double the length of NAA treated roots | both roots and shoots become agravitropic | completely destroys the gravitropic response | also upregulated in the presence of PA; also recorded: normally upregulated following ethylene treatment even in the presence of PA | extremely reduced
